Tests used:
[1] = test system: Sprague-Dawley rats; test: in vivo toxicity test, intraperitoneal injection in Sprague-Dawley rats; conditions: 10 mg, rats 240-250 g body weight
Description: (§1) The therapeutic use of C1' aminobiopterin is facilitated by its low toxicity, both in vitro and in vivo. A useful in vitro toxicity screen which is predictive of in vivo response was to use cultured 3T3 murine fibroblasts. […] In an in vivo test, intraperitoneal injection of a solution containing 10 mg of tetrahydroaminobiopterin (I) dihydrochloride caused no toxicity in Sprague-Dawley rats (240-250 g body weight).

[2] = biological target: murine inducible NOS (Mus musculus, UniProt P29477); test: NO synthase activity, formation of tritiated citrulline from tritiated L-arginine (murine inducible); format: biochemical; conditions: 10 μM tetrahydrobiopterin, read-out: IC50 (50% inhibitory concentration), inhibition of stimulation of NOSs by tetrahydrobiopterin
Description: (§2) It has been discovered that C1' tetrahydroaminobiopterin inhibits the stimulation of NOSs by 10 μM tetrahydrobiopterin with an IC50 (50% inhibitory concentration) of 1 μM (rat neuronal NOS), or 7 μM (murine inducible NOS) as assayed by formation of tritiated citrulline from tritiated L-arginine according to Mayer, et al., "Molecular mechanisms of inhibition of porcine brain nitric oxide synthase by the antinociceptive drug 7-nitro-indazole," Neuropharmacology, 33:1253-1259 (1994), the teachings of which are incorporated herein by reference. In tissue culture tetrahydroaminobiopterin (I) reduced the formation of nitrites (a breakdown product of nitric oxide) when formation was triggered in murine NIH-3T3 by treatment with a combination of murine interferon-y (250 U/ml) and lipopolysaccharide (1 μg/ml) ("LPS"). […] In one embodiment, rat liver phenylalanine-4-hydroxylase was inhibited by 1 mM tetrahydroaminobiopterin only 30% irrespective of the tetrahydroaminobiopterin concentrations used (3-300 μM). IC50 of tetrahydroaminobiopterin (I) for sheep liver dihydropterin reductase is 20 μM, again irrespective of the tetrahydroaminobiopterin concentrations used.

[3] = test system: 3T3 murine fibroblasts; test: in vitro toxicity screen in cultured 3T3 murine fibroblasts; format: cell-based; conditions: 250 μM, up to 48 hours
Description: as §1

[4] = biological target: T1, recombinant rat neuronal NO synthase (Rattus norvegicus, UniProt P29476); test: NO synthase activity, formation of tritiated citrulline from tritiated L-arginine (rat neuronal); format: biochemical
T1 construct: made in house
Description: as §2
NO synthase activity: NO synthase activity was measured as the formation of [2,3,4,5-^3 H]citrulline from L-[2,3,4,5-^3 H]arginine. This was conducted by the method of Mayer, et al., "Molecular mechanisms of inhibition of porcine brain nitric oxide synthase by the antinociceptive drug 7-nitro-indazole," Neuropharmacology, 33:1253-1259 (1994). Incubation mixtures (0.1 ml) contain 50 mM triethanolamine/HCl buffer, pH 7.0, 0.1 μg purified recombinant rat neuronal NO synthase (tetrahydrobiopterin-free, prepared according to the teachings of List et al., Biochem. J., 315:57-63 (1996)), the teachings of which are incorporated herein by reference., 0.1 mM L-2,3,4,5-^3 H]arginine (approx 6000 counts per minute). 0.5 mM CaCl2, 10 μg/ml calmodulin, 0.2 mM NADPH ([…], reduced form), 10 μM 6R-tetrahydrobiopterin, 0-1000 μM NO synthase inhibitor, 5 μM flavin adenine dinucleotide("FAD"), 5 μM flavin mononucleotide ("FMN"), and 0.2 mM 3-[3-chloramidopropyl)dimethylamonio]-1-propanesulfonate ("CHAPS"). After incubation for 10 minutes at 37° C., the reaction is stopped by the addition of 0.9 ml 20 mM sodium acetate buffer, pH 5.5, containing 1 mM L-citrulline. The mixture is then applied to ion exchange resin columns (Dowex AG50W-XB, Dow Chemical, Midland, Mich.), the eluate and 1 ml water for washing the column are collected. Next, 7 ml scintillation cocktail are added and the radioactivity is determined. The radioactivity detected by scintillation corresponds to the amount of L-citrulline formed in the NO synthase reaction.

[5] = test system: murine 3T3 fibroblasts; test: nitrite formation by interferon-γ/LPS stimulated murine 3T3 fibroblasts (Example 2); format: cell-based; conditions: for inhibition at 7.8 µM: conc. 7.8 μM; for inhibition at 7.8 µM / inhibition at 15.6 µM / inhibition at 31.2 µM / inhibition at 62.5 µM: 48 hours; for inhibition at 15.6 µM: conc. 15.6 μM; for inhibition at 31.2 µM: conc. 31.2 μM; for inhibition at 62.5 µM: conc. 62.5 μM
Description: Nitric oxide synthase is induced in 3T3 fibroblasts from mice (1×10^5 /ml) by a mixture of LPS (055:b5 from E. coli.), 1 μg/ml) and murine interferon-γ (50 U/ml). The cells were cultured with and without inhibitors for 48 hours, and nitrite was determined in culture supernatants as a measure of NO formation by the cells. The ratio of nitrite to nitrate, the second product of decomposition of NO, remains constant by treatment with the inhibitor. Nitrite determination was carried out using the Greiss Ilosvay's reagent, which was mixed with an equal volume of culture supernatant and the amount of dye formed was measured by UV absorption at 550 nm in a microplate reader.

[6] = biological target: inducible murine nitric oxide synthase (Mus musculus, UniProt P29477); test: binding of tritiated tetrahydroaminobiopterin (Klatt et al.), affinity for inducible murine nitric oxide synthase; conditions: vs naturally occurring cofactor tetrahydrobiopterin
[7] = test system: murine NIH-3T3; test: formation of nitrites triggered in murine NIH-3T3 by interferon-γ (250 U/ml) and LPS; format: cell-based
Description: as §2

[8] = test system: cultivated porcine endothelial cells; test: NOS inhibition in cultivated porcine endothelial cells; format: cell-based; conditions: Sus scrofa, Endothelial cell, read-out: IC50, inhibitory effect on NOS
[9] = biological target: rat neuronal nitric oxide synthase (Rattus norvegicus, UniProt P29476); test: binding of tritiated tetrahydroaminobiopterin (Klatt et al.), affinity for rat neuronal nitric oxide synthase; conditions: vs naturally occurring cofactor tetrahydrobiopterin
Sequence of rat neuronal nitric oxide synthase (P29476 whole entry): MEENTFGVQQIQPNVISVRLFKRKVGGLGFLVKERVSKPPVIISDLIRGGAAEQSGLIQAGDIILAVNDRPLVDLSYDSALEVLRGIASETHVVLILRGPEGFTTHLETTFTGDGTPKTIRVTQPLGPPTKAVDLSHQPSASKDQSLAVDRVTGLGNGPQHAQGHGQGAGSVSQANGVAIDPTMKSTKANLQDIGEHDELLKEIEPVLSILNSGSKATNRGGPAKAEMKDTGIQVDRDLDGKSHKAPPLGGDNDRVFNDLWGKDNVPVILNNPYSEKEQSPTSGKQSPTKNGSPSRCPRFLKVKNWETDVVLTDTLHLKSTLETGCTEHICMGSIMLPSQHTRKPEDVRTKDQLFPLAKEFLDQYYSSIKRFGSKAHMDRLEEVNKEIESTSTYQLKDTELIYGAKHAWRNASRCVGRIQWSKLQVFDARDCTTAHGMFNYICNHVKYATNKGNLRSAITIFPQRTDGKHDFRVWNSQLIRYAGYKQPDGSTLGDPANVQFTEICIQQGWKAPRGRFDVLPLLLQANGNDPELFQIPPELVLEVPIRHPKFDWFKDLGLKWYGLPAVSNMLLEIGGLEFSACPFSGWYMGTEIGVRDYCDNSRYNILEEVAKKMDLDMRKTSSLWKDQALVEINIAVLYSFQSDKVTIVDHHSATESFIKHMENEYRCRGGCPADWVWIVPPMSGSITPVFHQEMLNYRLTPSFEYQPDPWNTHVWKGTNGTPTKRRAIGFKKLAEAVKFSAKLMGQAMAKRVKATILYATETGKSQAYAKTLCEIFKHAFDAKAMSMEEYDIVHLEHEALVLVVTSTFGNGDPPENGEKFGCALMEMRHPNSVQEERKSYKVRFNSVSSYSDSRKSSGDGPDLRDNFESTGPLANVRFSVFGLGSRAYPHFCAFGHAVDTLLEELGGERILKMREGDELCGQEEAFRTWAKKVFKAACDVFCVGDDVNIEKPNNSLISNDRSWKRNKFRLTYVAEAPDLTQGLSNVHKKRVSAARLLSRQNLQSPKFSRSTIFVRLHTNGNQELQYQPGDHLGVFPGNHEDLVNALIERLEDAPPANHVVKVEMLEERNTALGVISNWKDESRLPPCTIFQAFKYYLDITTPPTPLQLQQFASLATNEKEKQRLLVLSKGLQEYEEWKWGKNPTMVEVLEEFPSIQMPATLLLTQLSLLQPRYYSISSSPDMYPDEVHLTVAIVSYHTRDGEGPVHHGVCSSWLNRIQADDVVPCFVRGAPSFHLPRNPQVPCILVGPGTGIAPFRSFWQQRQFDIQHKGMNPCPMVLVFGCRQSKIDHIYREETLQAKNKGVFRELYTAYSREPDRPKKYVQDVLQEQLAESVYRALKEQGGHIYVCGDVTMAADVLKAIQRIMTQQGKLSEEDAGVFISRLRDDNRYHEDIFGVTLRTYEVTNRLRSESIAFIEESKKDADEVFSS
Description: These determinations are assayed with binding of tritiated tetrahydroaminobiopterin according to the method of Klatt et al., "The pteridine binding site of brain nitric oxide synthase," J.Biol.Chem., 269:13861-13866 (1994), the teachings of which are incorporated herein by reference.

[10] = test system: rat liver phenylalanine-4-hydroxylase; test: inhibition of rat liver phenylalanine-4-hydroxylase; format: biochemical; conditions: 1 mM; irrespective of the tetrahydroaminobiopterin concentrations used (3-300 μM)
Description: as §2

[11] = test system: NOSs; test: specificity for NOSs; format: biochemical
Description: as §2

[12] = conc. 0.01 μM, 10 μM 6R-tetrahydrobiopterin
[13] = conc. 0.1 μM, 10 μM 6R-tetrahydrobiopterin
[14] = conc. 1.0 μM, 10 μM 6R-tetrahydrobiopterin
[15] = conc. 3.0 μM, 10 μM 6R-tetrahydrobiopterin
[16] = conc. 10 μM, 10 μM 6R-tetrahydrobiopterin
[17] = conc. 30 μM, 10 μM 6R-tetrahydrobiopterin
[18] = conc. 100 μM, 10 μM 6R-tetrahydrobiopterin
[19] = conc. 1000 μM, 10 μM 6R-tetrahydrobiopterin

NO synthase activity [4, 12] [nmol/mg/min]	NO synthase activity [4, 13] [nmol/mg/min]	NO synthase activity [4, 14] [nmol/mg/min]	NO synthase activity [4, 16] [nmol/mg/min]	NO synthase activity [4, 18] [nmol/mg/min]	NO synthase activity [4, 19] [nmol/mg/min]	inhibition at 100 µM [4, 18] [%]	Structure (SMILES)	NO synthase activity [4, 15] [nmol/mg/min]	inhibition at 3 µM [4, 15] [%]	NO synthase activity [4, 17] [nmol/mg/min]	inhibition at 30 µM [4, 17] [%]	inhibition at 7.8 µM ([5]; Mus musculus, Fibroblast) [%]	inhibition at 15.6 µM ([5]; Mus musculus, Fibroblast) [%]	inhibition at 31.2 µM ([5]; Mus musculus, Fibroblast) [%]	inhibition at 62.5 µM ([5]; Mus musculus, Fibroblast) [%]	affinity for nitric oxide synthase relative to tetrahydrobiopterin (fold higher) [6]	affinity for nitric oxide synthase relative to tetrahydrobiopterin (fold higher) [9]	also measured
–	–	–	–	–	–	–	C[C@H](O)[C@H](O)C1CNc2nc(N)nc(N)c2N1 (stereo partly drawn)	–	–	–	–	–	–	–	–	–	–	toxicity in vivo [1]: no toxicity
325	318	306	316	274	136	18	Nc1nc(N)c2c(n1)NCC(CO)N2 (stereo not drawn) [(III), 2,4-diamino-5,6,7,8-tetrahydro-6-hydroxymethyl pteridine, reference compound]	304	9	319	4	0	8	16	50	–	–	inhibition at 0.01 µM [4, 12]: 3%; inhibition at 0.1 µM [4, 13]: 5%; inhibition at 1 µM [4, 14]: 8%; inhibition at 10 µM [4, 16]: 5%; inhibition at 1000 µM [4, 19]: 60%; activity in words ([5]; 7.5 μM): no activity
294	283	242	110	48	25	82	C[C@H](O)[C@H](O)C1=Nc2c(N)nc(N)nc2NC1 [(IV), 2,4-diamino-7,8-dihydro-6-(L-erythro-1,2-dihydroxylpropyl)pteridine]	–	–	–	–	–	–	–	–	about 2.5 -fold	about 20 -fold	–

Structure (SMILES)	NO synthase activity [4, 12] [nmol/mg/min]	NO synthase activity [4, 13] [nmol/mg/min]	NO synthase activity [4, 14] [nmol/mg/min]	NO synthase activity [4, 16] [nmol/mg/min]	NO synthase activity [4, 18] [nmol/mg/min]	NO synthase activity [4, 19] [nmol/mg/min]	inhibition at 100 µM [4, 18] [%]	NO synthase activity [4, 15] [nmol/mg/min]	inhibition at 3 µM [4, 15] [%]	NO synthase activity [4, 17] [nmol/mg/min]	inhibition at 30 µM [4, 17] [%]	inhibition at 7.8 µM ([5]; Mus musculus, Fibroblast) [%]	inhibition at 15.6 µM ([5]; Mus musculus, Fibroblast) [%]	inhibition at 31.2 µM ([5]; Mus musculus, Fibroblast) [%]	inhibition at 62.5 µM ([5]; Mus musculus, Fibroblast) [%]	affinity for nitric oxide synthase relative to tetrahydrobiopterin (fold higher) [6]	affinity for nitric oxide synthase relative to tetrahydrobiopterin (fold higher) [9]	also measured
C[C@H](O)[C@H](O)C1CNc2nc(N)nc(N)c2N1 (stereo partly drawn) [(I), 2,4-diamino-5,6,7,8-tetrahydro-6-(L-erythro-1,2-dihydroxylpropyl)pteridine]	279	262	181	72	35	24	–	125	58	50	83	44	65	77	88	about 2.5 -fold	about 20 -fold	IC50 [2]: 7 µM; cytotoxicity [3]: no cytotoxicity; IC50 ([4]; 10 μM tetrahydrobiopterin, rat neuronal NOS, read-out: IC50 (50% inhibitory concentration), inhibition of stimulation of NOSs by tetrahydrobiopterin): 1 µM; inhibition at 7.5 µM ([5]; Mus musculus, Fibroblast, 7.5 μM): 44%; NO synthase inhibitor potency compared with (III) ([5]; compared with (III)): more potent NO synthase inhibitor; IC50 ([7]; Mus musculus, NIH3T3, murine interferon-γ (250 U/ml) and LPS (1 μg/ml)): 13 µM; cellular toxicity ([7]; murine NIH-3T3, nitrite formation test): without apparent cellular toxicity; IC50 [8]: 100 µM; inhibition of phenylalanine-4-hydroxylase [10]: 30%; specificity for NOSs [11]: highly specific for NOSs

From patent US5922713A, “Inhibition of nitric oxide synthase” (priority 1997, dated 1999)
